Results as given in PMC2361324, “Phase 1 trial of the antiangiogenic peptide ATN-161 (Ac-PHSCN-NH2), a beta integrin antagonist, in patients with solid tumours” (British Journal of Cancer, 2006).
Like-named read-outs stand apart in the source and are kept apart here.

Tests used:
[1] = Serological antibody immune response against ATN-161 in patients; type: in vivo, human
MLL cells = conditions: attempts to show induction; ref Livant et al, 2000b; cited from earlier work
[2] = except at extremely high, supratherapeutic doses, ref not given, cited from earlier work
From the text: These preclinical animal models included assessment of the effects of ATN-161 on tumour growth, metastasis, angiogenesis, tumour perfusion and circulating endothelial progenitor cells (CEPs) ([Donate et al, 2003]). […] We designed the phase 1 trial to evaluate a dose range in human beings (using well-established rules for interspecies dose conversi ...

advanced solid tumours = assay: Clinical response by RECIST in phase 1 trial; type: in vivo, human
Method: During treatment, patients were evaluated monthly with physical examinations including toxicity assessment using the CTC, ECOG PS, serum chemistry, haematology and coagulation testing. Tumour burden was reassessed every two cycles (8 weeks) by physical exam or radiological methods as appropriate using RECIST ([Therasse et al, 2000]).

[3] = Plasma pharmacokinetics in phase 1 trial; conditions: human, iv; for Vd: patients, Day 1, HPLC-MS/MS, noncompartmental, cohort mean
Method: (§3) Blood samples for PK analysis were collected in EDTA-coated tubes on Day 1 for all patients preinfusion, at the end of infusion, and at 5, 10, 15, 30, 45, 60, 90, 120, 150, 180, 240, 400, 460 and 520 min after infusion. Samples were immediately centrifuged, and the plasma was separated and stored at −20°C prior to analysis.
(§4) Pharmacokinetic data were modelled using a noncompartmental approach to estimate individual subject values for the following parameters: maximum observed concentration (Cmax), time of the maximum observed concentration (Tmax), volume of distribution at steady state (VSS), terminal elimination half-life (t1/2), total systemic clearance (CL), area under the plasma concentration-time curve (AUC), and CLr. For these parameters the mean and s.d. coefficient of variation were calculated.
(§5) Descriptive PKs parameters were determined by standard model independent methods for infusion administration ([Perrier and Gibaldi, 1982]) from plasma concentrations in each individual patient. Plasma and urine concentrations were rounded to the nearest [drawing 1] ng ml^−1 before the calculations. Plasma samples with concentrations below the quantifiable limit of 50.0 ng ml^−1 (BQL) were assigned values of zero for generation of mean and s.d. plasma concentrations. For PKs calculations, BQL was treated as zero up to the first quantifiable plasma concentration and then treated as an empty value thereafter. Urine samples reported as BQL (⩽50.0 ng ml^−1) were treated as zero for all calculations. Actual patient blood collection sampling times relative to the start of infusion were used for PKs calculations; however, scheduled collection times were used for urinary excretion data and graphical presentations of all data.

[4] = tested on: MLL prostate cancer cell line; conditions: in vitro, rat MLL prostate cancer cell line; ref Livant et al, 2000b; cited from earlier work
From the text: (§1) In vitro, ATN-161 inhibited PHSRN-induced basement membrane invasion of human (DU145) and rat (MLL) prostate cancer cell lines ([Livant et al, 2000b]).

[5] = tested on: DU145 prostate cancer cell line; conditions: in vitro, human DU145 prostate cancer cell line; ref Livant et al, 2000b; cited from earlier work
From the text: as §1

integrin beta subunits = conditions: ref Donate et al, 2003; cited from earlier work
From the text: (§2) ATN-161 is a noncompetitive inhibitor of the fibronectin PHSRN sequence, in which a cysteine residue has been substituted for arginine along with peptide acetylation and amidation in order to yield a product with acceptable pharmaceutical properties (Ac-PHSCN-NH2). […] Thus, ATN-16 ...

[6] = tested on: integrin-dependent adhesion; conditions: ref Plunkett and Mazar, 2002, Plunkett et al; cited from earlier work
From the text: as §2

[7] = animal studies, preclinical; ref not given; cited from earlier work
MLL tumours = conditions: Copenhagen rats, ref Livant et al, 2000b, cited from earlier work
[8] = Urinary excretion and renal clearance in phase 1 trial; type: in vivo, human; conditions: urine; for dose excreted: human, iv
Method: as §3, §4, §5

## Ac-PHSCN-NH2 [ATN-161, Ac-PHSCN-NH2]
[1]
  Antibody immune response against ATN-161: no serological evidence
MLL cells
  Induction of apoptosis in MLL cells: unsuccessful
[2]; primates
  Toxicity in preclinical toxicology studies: no consistent evidence of ATN-161 toxicity
[2]; rats
  Toxicity in preclinical toxicology studies: no consistent evidence of ATN-161 toxicity
Advanced solid tumours; 26 patients, 0.1-16 mg kg^−1 thrice weekly i.v.
  Objective response as defined by RECIST: No patient in the study had an objective response
Advanced solid tumours; patients in the study, all dose levels
  Fraction of patients with prolonged stable disease: 1/3
Advanced solid tumours; six of the 26 treated patients, 0.1-16 mg kg^−1 thrice weekly i.v.
  Patients with stable disease of >4 months: 23%
[3]; 0.25 mg/kg
  AUC(0-t): 3420 ng·h/mL
  Cmax: 1120 ng/mL
  MRT: 5.5 h
  clearance: 1.33 mL/min/kg
  half-life: 4.4 h
[3]; 0.25 mg/kg, Vd (volume of distribution), 0.25 mg kg^−1 10-min i.v. infusion
  Vd: 0.48 L/kg
[3]; 0.25 mg/kg, Vss (volume of distribution at steady state), 0.25 mg kg^−1 10-min i.v. infusion
  Vd: 0.33 L/kg
[3]; 0.5 mg/kg
  AUC(0-t): 3610 ng·h/mL
  Cmax: 5790 ng/mL
  MRT: 3.3 h
  clearance: 2.83 mL/min/kg
  half-life: 3.2 h
[3]; 0.5 mg/kg, Vd (volume of distribution), 0.5 mg kg^−1 10-min i.v. infusion
  Vd: 0.87 L/kg
[3]; 0.5 mg/kg, Vss (volume of distribution at steady state), 0.5 mg kg^−1 10-min i.v. infusion
  Vd: 0.47 L/kg
[3]; 1 mg/kg
  AUC(0-t): 1450 ng·h/mL
  Cmax: 3800 ng/mL
  MRT: 3.8 h
  clearance: 10.2 mL/min/kg
  half-life: 3.9 h
[3]; 1 mg/kg, Vd (volume of distribution), 1 mg kg^−1 10-min i.v. infusion
  Vd: 3.38 L/kg
[3]; 1 mg/kg, Vss (volume of distribution at steady state), 1 mg kg^−1 10-min i.v. infusion
  Vd: 2.3 L/kg
[3]; 2 mg/kg
  AUC(0-t): 3320 ng·h/mL
  Cmax: 15700 ng/mL
  MRT: 2.5 h
  clearance: 11.5 mL/min/kg
  half-life: 3.5 h
[3]; 2 mg/kg, Vd (volume of distribution), 2 mg kg^−1 10-min i.v. infusion
  Vd: 3.38 L/kg
[3]; 2 mg/kg, Vss (volume of distribution at steady state), 2 mg kg^−1 10-min i.v. infusion
  Vd: 1.93 L/kg
[3]; 4 mg/kg
  AUC(0-t): 3710 ng·h/mL
  Cmax: 5480 ng/mL
  MRT: 4.8 h
  clearance: 14.5 mL/min/kg
  half-life: 4.3 h
[3]; 4 mg/kg, Vd (volume of distribution), 4 mg kg^−1 10-min i.v. infusion
  Vd: 5.59 L/kg
[3]; 4 mg/kg, Vss (volume of distribution at steady state), 4 mg kg^−1 10-min i.v. infusion
  Vd: 3.82 L/kg
[3]; 8 mg/kg
  AUC(0-t): 34200 ng·h/mL
  Cmax: 34400 ng/mL
  MRT: 3.4 h
  clearance: 7 mL/min/kg
  half-life: 3.3 h
[3]; 8 mg/kg, Vd (volume of distribution), 8 mg kg^−1 10-min i.v. infusion
  Vd: 2.14 L/kg
[3]; 8 mg/kg, Vss (volume of distribution at steady state), 8 mg kg^−1 10-min i.v. infusion
  Vd: 1.32 L/kg
[3]; 16 mg/kg
  AUC(0-t): 54900 ng·h/mL
  Cmax: 72700 ng/mL
  MRT: 5.3 h
  clearance: 5.83 mL/min/kg
  half-life: 5 h
[3]; 16 mg/kg, Vd (volume of distribution), 16 mg kg^−1 10-min i.v. infusion
  Vd: 2.36 L/kg
[3]; 16 mg/kg, Vss (volume of distribution at steady state), 16 mg kg^−1 10-min i.v. infusion
  Vd: 1.61 L/kg
[4]
  PHSRN-induced basement membrane invasion: inhibited
[5]
  PHSRN-induced basement membrane invasion: inhibited
Integrin beta subunits
  Binding to integrin subunits: binds exclusively to integrin beta subunits
[6]
  Block of integrin-dependent adhesion: does not block
[7]
  Immunogenicity: not immunogenic
MLL tumours; systemic 5 mg kg^−1, five injections over 16 days
  Growth of primary MLL tumours: markedly reduced
MLL tumours
  Ability of MLL tumour cells to metastasise: inhibited
[8]; almost all patients (23 of 26)
  time after dose administration in which the majority of the dose was excreted: ≤ 2 h
[8]; 0.1 mg/kg, patients, 0.1 mg kg^−1 10-min i.v. infusion, Day 1, HPLC-MS/MS, cohort mean, read-out: Urinary excretion between 0 and 7 h as a percent of dose
  dose excreted: 2.46%
[8]; 0.25 mg/kg, patients, 0.25 mg kg^−1 10-min i.v. infusion, Day 1, HPLC-MS/MS, cohort mean, read-out: Urinary excretion between 0 and 7 h as a percent of dose
  dose excreted: 13.8%
[8]; 0.5 mg/kg, patients, 0.5 mg kg^−1 10-min i.v. infusion, Day 1, HPLC-MS/MS, cohort mean, read-out: Urinary excretion between 0 and 7 h as a percent of dose
  dose excreted: 25.3%
[8]; 1 mg/kg, patients, 1 mg kg^−1 10-min i.v. infusion, Day 1, HPLC-MS/MS, cohort mean, read-out: Urinary excretion between 0 and 7 h as a percent of dose
  dose excreted: 1.82%
[8]; 2 mg/kg, patients, 2 mg kg^−1 10-min i.v. infusion, Day 1, HPLC-MS/MS, cohort mean, read-out: Urinary excretion between 0 and 7 h as a percent of dose
  dose excreted: 2.35%
[8]; 4 mg/kg, patients, 4 mg kg^−1 10-min i.v. infusion, Day 1, HPLC-MS/MS, cohort mean, read-out: Urinary excretion between 0 and 7 h as a percent of dose
  dose excreted: 2.36%
[8]; 8 mg/kg, patients, 8 mg kg^−1 10-min i.v. infusion, Day 1, HPLC-MS/MS, cohort mean, read-out: Urinary excretion between 0 and 7 h as a percent of dose
  dose excreted: 17.5%
[8]; 16 mg/kg, patients, 16 mg kg^−1 10-min i.v. infusion, Day 1, HPLC-MS/MS, cohort mean, read-out: Urinary excretion between 0 and 7 h as a percent of dose
  dose excreted: 15.3%
[8]; majority of the patients (20 of 26), all dose levels, urine 0-7 h, read-out: Urinary excretion, percent of administered dose
  dose excreted: ~2%
[8]; remaining six of 26 patients, not associated with dose level, urine 0-7 h, read-out: Urinary excretion, percent of administered dose
  dose excreted: 20 to 50%
